From US4886810A, “Quinoline derivatives, pharmaceutical composition and method of use” (Dainippon Pharmaceutical Co., Ltd., priority 1986, dated 1989)
Converted amounts (≈) assume the structure as drawn. Read-outs that look alike come from different tables or passages of the source.

Assays:
S. aureus 209P JC-1 = assay: microbe, parasite or virus in culture; format: cell-based; conditions: Staphylococcus aureus, 20 h, read-out: minimum inhibitory concentrations (MIC)
S. aureus No. 50774 = assay: microbe, parasite or virus in culture; format: cell-based
S. aureus No. 80 = assay: microbe, parasite or virus in culture; format: cell-based
S. pyogenes A 65 = assay: microbe, parasite or virus in culture; format: cell-based
S. pyogenes Cook = assay: microbe, parasite or virus in culture; format: cell-based
E. coli P-51213 = assay: microbe, parasite or virus in culture; format: cell-based
P. aeruginosa 12 = assay: microbe, parasite or virus in culture; format: cell-based
M. bovis P-7101 = assay: microbe, parasite or virus in culture; format: cell-based; conditions: Mycobacterium tuberculosis variant bovis, P7101, 20 h; read-out: minimum inhibitory concentrations (MIC)
M. lacunata P-7102 = assay: microbe, parasite or virus in culture; format: cell-based
Flavobacterium sp P-7201 = assay: microbe, parasite or virus in culture; format: cell-based; conditions: P7201, 20 h, read-out: minimum inhibitory concentrations (MIC)
B. abortus kusayanagi = assay: microbe, parasite or virus in culture; format: cell-based; conditions: Brucella abortus, 20 h; read-out: minimum inhibitory concentrations (MIC)
[1] = tested on: Gram-positive and Gram-negative bacteria; assay: In vitro antibacterial activity, overall; format: cell-based
Experimental: The numbers in the table show minimum inhibitory concentrations (MIC) (μg/ml), calculated for free base. The minimum inhibitory concentration was determined by the twofold agar-dilution method, which was recommended by Japan Society of Chemotherapy (Chemotherapy, 29(1), (1981)), using Muller-Hinton agar. One loopful of an overnight culture of test organisms in Mueller-Hinton broth was inoculated onto 10-ml drug-containing agar layers in petri dishes. Bacterial inocula contained approximately 10^6 colonyl-forming units. Bacterial growth was observed after 20-hour incubation at 37° C. The MIC was defined as the lowest drug concentration which prevented visible bacterial growth.

[2] = tested on: Staphylococcus aureus 50774; assay: animal or person; format: in vivo; conditions: for ED50: Staphylococcus aureus, 50774, in Mus musculus, po, 336 h, read-out: median effective dose (ED50)
[3] = tested on: Streptococcus pyogenes A65; assay: animal or person; format: in vivo; conditions: A65, in Mus musculus, po, 168 h, 7 days, read-out: median effective dose (ED50)
[4] = tested on: Pseudomonas aeruginosa 12; assay: animal or person; format: in vivo; conditions: for ED50: Pseudomonas aeruginosa, 12, in Mus musculus, po, 168 h, 7 days, read-out: median effective dose (ED50); for efficacy against systemic infection by P. aeruginosa 12 compared with Compound A (in words): in vivo
[5] = tested on: Gram-positive and Gram-negative bacteria; assay: In vivo efficacy against systemic infections, overall; conditions: for therapeutic effect on infections by Gram-positive and Gram-negative bacteria (in words): in vivo; for therapeutic effect compared with Compounds A and B (in words): versus Compounds A and B, systemic infections, mice
Experimental: Compounds were each dissolved in deionized water. Each of the solutions was orally administered to mice infected with each of the test organisms under the conditions shown hereinbelow, and the median effective dose (ED 50) was calculated by […]. The numerals in the table show ED50 (mg/kg) value, calculated for free base.
Mice: Male mice (ddY-S) weighing about 20 g Infection:
Twice, immediately and 6 hours after infection.
For 14 days in case of Staphylococcus aureus 50774.
For 7 days in case of other organisms.

in vivo [6] = assay: in vivo; parameters: species or system mice; conditions: mouse; for dose excreted at 24 h: 5 mg/kg
in vivo [7] = conditions: mouse, po
male mice (ddY) = assay: Acute oral toxicity in mice (Table 3); conditions: mouse, in vivo
[8] = Staphylococcus aureus, NO.50774, 20 h; read-out: minimum inhibitory concentrations (MIC)
[9] = Staphylococcus aureus, NO.80, 20 h; read-out: minimum inhibitory concentrations (MIC)
[10] = Streptococcus pyogenes, A65, 20 h; read-out: minimum inhibitory concentrations (MIC)
[11] = Streptococcus pyogenes, 20 h; read-out: minimum inhibitory concentrations (MIC)
[12] = Escherichia coli, P51213, 20 h; read-out: minimum inhibitory concentrations (MIC)
[13] = Pseudomonas aeruginosa, 12, 20 h; read-out: minimum inhibitory concentrations (MIC)
[14] = 20 h; read-out: minimum inhibitory concentrations (MIC)

Row | Structure (SMILES) | MIC (S. aureus 209P JC-1) | MIC (S. aureus No. 50774; [8]) | MIC (S. aureus No. 80; [9]) | MIC (S. pyogenes A 65; [10]) | MIC (S. pyogenes Cook; [11]) | MIC (E. coli P-51213; [12]) | MIC (P. aeruginosa 12; [13]) | MIC (M. bovis P-7101) | MIC (M. lacunata P-7102; [14]) | MIC (Flavobacterium sp P-7201) | MIC (B. abortus kusayanagi) | antibacterial activity against Gram-positive and Gram-negative bacteria (in words) [1] | ED50 [3] | ED50 [4] | LD50 at 168 h (in vivo [7]) | toxicity (in words) (male mice (ddY)) | further results
1 | C[C@H]1CN(c2c(F)c(N)c3c(=O)c(C(=O)O)cn(C4CC4)c3c2F)C[C@H]1CN.Cl (relative stereo) [Compound 6, 5-amino-7-(cis-3-aminomethyl-4-methyl-1-pyrrolidinyl)-1-cyclopropyl-6,8-difluoro-1,4-dihydro-4-oxoquinoline-3-carboxylic acid hydrochloride] | < 0.0031 µg/mL | 0.0031 µg/mL | 0.0031 µg/mL | 0.0125 µg/mL | 0.0063 µg/mL | 0.0125 µg/mL | 0.1 µg/mL | 0.2 µg/mL | 0.2 µg/mL | 0.025 µg/mL | 0.39 µg/mL | – | – | – | – | – | –
2 | CC1CN(c2c(F)c(F)c3c(=O)c(C(=O)O)cn(C4CC4)c3c2F)CCN1 (stereo not shown) [Compound 1, 1-cyclopropyl-5,6,8-trifluoro-7-(3-methyl-1-piperazinyl)-1,4-dihydro-4-oxoquinoline-3-carboxylic acid] | 0.2 µg/mL (≈ 0.524 µM) | 0.2 µg/mL (≈ 0.524 µM) | 0.2 µg/mL (≈ 0.524 µM) | 1.56 µg/mL (≈ 4.09 µM) | 1.56 µg/mL (≈ 4.09 µM) | 0.1 µg/mL (≈ 0.262 µM) | 0.78 µg/mL (≈ 2.05 µM) | 1.56 µg/mL (≈ 4.09 µM) | 6.25 µg/mL (≈ 16.4 µM) | 0.39 µg/mL (≈ 1.02 µM) | 3.13 µg/mL (≈ 8.21 µM) | very high antibacterial activities | 17.3 mg/kg | 2.46 mg/kg | > 2000 mg/kg | low oral toxicity | ED50 ([2]; 14 days): 2.4 mg/kg; efficacy against systemic infection by S. aureus 50774 compared with Compound B (in words) ([2]; in vivo): better efficacy; efficacy against systemic infection by P. aeruginosa 12 compared with Compound A (in words) [4]: better efficacy; therapeutic effect on infections by Gram-positive and Gram-negative bacteria (in words) [5]: potent therapeutic effects; therapeutic effect compared with Compounds A and B (in words) [5]: better therapeutic effects; dose excreted at 24 h (in vivo [6]; feces, iv, read-out: Feces recovery): 14%; dose excreted at 24 h (in vivo [6]; feces, po, read-out: Feces recovery): 22.3%; absorbability (in words) (in vivo [6]; in vivo): very good oral absorbability; metabolic stability (in words) (in vivo [6]; in vivo): good metabolic stability; total recovery (in words) (in vivo [6]; in vivo): High total recovery; urinary excretion (in words) (in vivo [6]; in vivo): very good; metabolic stability and oral absorbability compared with Compound B (in words) (in vivo [6]; in vivo, po): superior to Compound B in metabolic stability and oral absorbability; dose excreted at 24 h (in vivo [6]; urine and feces, iv, read-out: Total recovery): 77.6%; dose excreted at 24 h (in vivo [6]; urine and feces, po, read-out: Total recovery): 85.7%; dose excreted at 24 h (in vivo [6]; urine, iv, read-out: Urine recovery): 63.6%; dose excreted at 24 h (in vivo [6]; urine, po, read-out: Urine recovery): 63.4%
3 | CCn1cc(C(=O)O)c(=O)c2c(N)c(F)c(N3CCNCC3)c(F)c21 [Compound A, 5-amino-1-ethyl-6,8-difluoro-7-(1piperazinyl)-1,4-dihydro-4-oxoquinoline-3-carboxylic acid, reference compound] | 0.2 µg/mL (≈ 0.568 µM) | 0.2 µg/mL (≈ 0.568 µM) | 0.2 µg/mL (≈ 0.568 µM) | 12.5 µg/mL (≈ 35.5 µM) | 6.25 µg/mL (≈ 17.7 µM) | 0.39 µg/mL (≈ 1.11 µM) | 0.78 µg/mL (≈ 2.21 µM) | 3.13 µg/mL (≈ 8.88 µM) | 6.25 µg/mL (≈ 17.7 µM) | 0.78 µg/mL (≈ 2.21 µM) | 3.13 µg/mL (≈ 8.88 µM) | – | > 25 mg/kg | 15 mg/kg | – | – | –
4 | CC1(N)CCN(c2c(F)c(N)c3c(=O)c(C(=O)O)cn(C4CC4)c3c2F)C1 (stereo not shown) [Compound 3, 5-amino-7-(3-amino-3-methyl-1-pyrrolidinyl)-1-cyclopropyl-6,8-difluoro-1,4-dihydro-4-oxoquinoline-3-carboxylic acid] | 0.025 µg/mL (≈ 0.0661 µM) | 0.025 µg/mL (≈ 0.0661 µM) | 0.0063 µg/mL (≈ 0.0166 µM) | 0.1 µg/mL (≈ 0.264 µM) | 0.1 µg/mL (≈ 0.264 µM) | 0.05 µg/mL (≈ 0.132 µM) | 0.2 µg/mL (≈ 0.529 µM) | 0.2 µg/mL (≈ 0.529 µM) | 0.78 µg/mL (≈ 2.06 µM) | 0.1 µg/mL (≈ 0.264 µM) | 0.39 µg/mL (≈ 1.03 µM) | very high antibacterial activities | 9.14 mg/kg | 1.68 mg/kg | > 2000 mg/kg | low oral toxicity | efficacy against systemic infection by P. aeruginosa 12 compared with Compound A (in words) [4]: better efficacy; therapeutic effect on infections by Gram-positive and Gram-negative bacteria (in words) [5]: potent therapeutic effects; therapeutic effect compared with Compounds A and B (in words) [5]: better therapeutic effects
5 | CCC1(N)CCN(c2c(F)c(N)c3c(=O)c(C(=O)O)cn(C4CC4)c3c2F)C1 (stereo not shown) [Compound 4, 5-amino-7-(3-amino-3-ethyl-1-pyrrolidinyl)-1-cyclopropyl-6,8-difluoro-1,4-dihydro-4-oxoquinoline-3-carboxylic acid] | 0.025 µg/mL (≈ 0.0637 µM) | 0.025 µg/mL (≈ 0.0637 µM) | 0.0063 µg/mL (≈ 0.0161 µM) | 0.2 µg/mL (≈ 0.51 µM) | 0.1 µg/mL (≈ 0.255 µM) | 0.05 µg/mL (≈ 0.127 µM) | 0.2 µg/mL (≈ 0.51 µM) | 0.2 µg/mL (≈ 0.51 µM) | 0.78 µg/mL (≈ 1.99 µM) | 0.05 µg/mL (≈ 0.127 µM) | 0.39 µg/mL (≈ 0.994 µM) | very high antibacterial activities | – | – | > 2000 mg/kg | low oral toxicity | –
6 | C[C@H]1CN(c2c(F)c(F)c3c(=O)c(C(=O)O)cn(C4CC4)c3c2F)C[C@H]1N (relative stereo) [Compound 2, 1-cyclopropyl-5,6,8-trifluoro-7-(cis3-amino-4-methyl-1-pyrrolidinyl)-1,4-dihydro-4-oxoquinoline-3-carboxylic acid] | 0.05 µg/mL (≈ 0.131 µM) | 0.05 µg/mL (≈ 0.131 µM) | 0.05 µg/mL (≈ 0.131 µM) | 0.39 µg/mL (≈ 1.02 µM) | 0.2 µg/mL (≈ 0.524 µM) | 0.05 µg/mL (≈ 0.131 µM) | 0.39 µg/mL (≈ 1.02 µM) | 0.39 µg/mL (≈ 1.02 µM) | 0.78 µg/mL (≈ 2.05 µM) | 0.2 µg/mL (≈ 0.524 µM) | 0.78 µg/mL (≈ 2.05 µM) | very high antibacterial activities | – | – | > 2000 mg/kg | low oral toxicity | –
7 | Cl.O=C(O)c1cn(C2CC2)c2cc(N3CCNCC3)c(F)cc2c1=O [Compound B, 1-cyclopropyl-6-fluoro-7-(1-piperazinyl)-1,4-dihydro-4-oxoquinoline-3carboxylic acid hydrochloride, reference compound] | 0.1 µg/mL | – | – | – | – | – | – | – | – | 0.39 µg/mL | – | – | – | – | – | – | MIC (S. aureus No. 50774; Staphylococcus aureus, NO.50774, 20 h, read-out: minimum inhibitory concentrations (MIC)): 0.1 µg/mL; MIC (S. aureus No. 80; Staphylococcus aureus, NO.80, 20 h, read-out: minimum inhibitory concentrations (MIC)): 0.39 µg/mL; MIC (S. pyogenes A 65; Streptococcus pyogenes, A65, 20 h, read-out: minimum inhibitory concentrations (MIC)): 0.2 µg/mL; MIC (S. pyogenes Cook; Streptococcus pyogenes, 20 h, read-out: minimum inhibitory concentrations (MIC)): 0.2 µg/mL; MIC (E. coli P-51213; Escherichia coli, P51213, 20 h, read-out: minimum inhibitory concentrations (MIC)): 0.05 µg/mL; MIC (P. aeruginosa 12; Pseudomonas aeruginosa, 12, 20 h, read-out: minimum inhibitory concentrations (MIC)): 0.1 µg/mL; MIC (M. lacunata P-7102; 20 h, read-out: minimum inhibitory concentrations (MIC)): 6.25 µg/mL; ED50 [2]: 11.7 mg/kg
8 | C[C@@H]1CN(c2c(F)c(N)c3c(=O)c(C(=O)O)cn(C4CC4)c3c2F)C[C@H]1N (relative stereo) [Compound 5, 5-amino-7-(trans-3-amino-4-methyl-1-pyrrolidinyl)-1-cyclopropyl-6,8-difluoro-1,4-dihydro-4-oxoquinoline-3-carboxylic acid] | 0.025 µg/mL (≈ 0.0661 µM) | 0.0125 µg/mL (≈ 0.033 µM) | 0.0125 µg/mL (≈ 0.033 µM) | 0.1 µg/mL (≈ 0.264 µM) | 0.1 µg/mL (≈ 0.264 µM) | 0.025 µg/mL (≈ 0.0661 µM) | 0.1 µg/mL (≈ 0.264 µM) | 0.1 µg/mL (≈ 0.264 µM) | 0.39 µg/mL (≈ 1.03 µM) | 0.05 µg/mL (≈ 0.132 µM) | 0.2 µg/mL (≈ 0.529 µM) | very high antibacterial activities | – | – | > 2000 mg/kg | low oral toxicity | –
